From the supplement of paper PMC8671470

What was measured:
Assay in all cases: cell viability (% survival relative to DMSO control); higher = less cytotoxic
Conditions in all cases: 72 h
Mono-Mac-6 = tested on: Mono-Mac-6
Protocol: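 8x8 drug-combination matrices (0–5000 nM; rosiglitazone and lestaurtinib 0–1000 nM) were run in Mono-Mac-6 cells for 72 h with CellTiter-Glo read-out. Survival is normalised to DMSO and 10 µM bortezomib and clipped at 100%.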

BV-173 = tested on: BV-173
Protocol: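 8x8 drug-combination matrices (0–5000 nM; rosiglitazone and lestaurtinib 0–1000 nM) were run in BV-173 cells for 72 h with CellTiter-Glo read-out. Survival is normalised to DMSO and 10 µM bortezomib and clipped at 100%.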

MV4-11 = tested on: MV4-11
Protocol: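 8x8 drug-combination matrices (0–5000 nM; rosiglitazone and lestaurtinib 0–1000 nM) were run in MV4-11 cells for 72 h with CellTiter-Glo read-out. Survival is normalised to DMSO and 10 µM bortezomib and clipped at 100%.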

CN(CCOc1ccc(Cc2sc(O)nc2O)cc1)c1ccccn1 [Rosiglitazone] + c1cc(-c2cnn3cc(-c4ccc(OCCN5CCCCC5)cc4)cnc23)ccn1 [Dorsomorphin]
cell viability [%]
Conditions | drug1 concentration 1 nM | drug1 concentration 5 nM | drug1 concentration 10 nM | drug1 concentration 50 nM | drug1 concentration 100 nM | drug1 concentration 500 nM | drug1 concentration 1000 nM
BV-173, drug2 concentration 5 nM | > 100 | > 100 | > 100 | > 100 | > 100 | > 100 | 91.8
BV-173, drug2 concentration 10 nM | > 100 | > 100 | > 100 | 97.8 | > 100 | > 100 | > 100
BV-173, drug2 concentration 50 nM | 58.5 | > 100 | > 100 | > 100 | > 100 | > 100 | > 100
BV-173, drug2 concentration 100 nM | > 100 | 99.4 | > 100 | 77.2 | > 100 | > 100 | > 100
BV-173, drug2 concentration 500 nM | > 100 | > 100 | 94.2 | > 100 | > 100 | 98.4 | 95.3
BV-173, drug2 concentration 1000 nM | 91.7 | > 100 | 62.5 | > 100 | > 100 | > 100 | > 100
BV-173, drug2 concentration 5000 nM | 75.2 | 85 | 99.8 | 93.5 | 97.2 | > 100 | > 100
MV4-11, drug2 concentration 5 nM | 96.5 | > 100 | > 100 | 98.4 | > 100 | > 100 | > 100
MV4-11, drug2 concentration 10 nM | > 100 | 97.3 | > 100 | 93.5 | > 100 | 83.4 | > 100
MV4-11, drug2 concentration 50 nM | > 100 | 98.2 | > 100 | > 100 | 84.9 | > 100 | > 100
MV4-11, drug2 concentration 100 nM | 98.3 | 98.1 | 99.6 | > 100 | > 100 | > 100 | 85.3
MV4-11, drug2 concentration 500 nM | 99 | 45.9 | 46.8 | 45.7 | 49 | 13 | 43.8
MV4-11, drug2 concentration 1000 nM | 26.1 | 20.7 | 21.6 | 23.8 | 7.5 | 23.4 | 16.8
MV4-11, drug2 concentration 5000 nM | 2.86 | 4.57 | 4.91 | 7.17 | 6.15 | 6.58 | 5.32
Mono-Mac-6, drug2 concentration 5 nM | > 100 | > 100 | 93 | > 100 | 89 | 49.2 | 33.8
Mono-Mac-6, drug2 concentration 10 nM | > 100 | 85.1 | 84.3 | 84.5 | 76 | 36.1 | 32.6
Mono-Mac-6, drug2 concentration 50 nM | 87.3 | 81.8 | 78.8 | 94.7 | 85.6 | 47.2 | 33.5
Mono-Mac-6, drug2 concentration 100 nM | 68.8 | > 100 | 84.1 | 74.5 | 81.5 | 28.7 | 31.1
Mono-Mac-6, drug2 concentration 500 nM | 78.1 | 59.9 | 54.8 | 60.7 | 53.5 | 22.8 | 6.36
Mono-Mac-6, drug2 concentration 1000 nM | 42.4 | 38.6 | 35.9 | 47.5 | 37.7 | 11.6 | 9.67
Mono-Mac-6, drug2 concentration 5000 nM | 6.04 | 9.54 | 9.61 | 9.94 | 12.2 | 5.66 | 12.4
